Data from ChEMBL document CHEMBL1153372, “A selective matrix metalloprotease 12 inhibitor for potential treatment of chronic obstructive pulmonary disease (COPD): discovery of (S)-2-(8-(methoxycarbonylamino)dibenzo[b,d]furan-3-sulfonamido)-3-methylbutanoic acid (MMP408)” (J Med Chem, 2009).

Key:
Collagenase 3 = Collagenase 3 (Homo sapiens, UniProt P45452); test: Inhibition of human recombinant MMP13 expressed in Escherichia coli
[1] = Clearance in C57BL/6 mouse at 2 mg/kg, iv; format: ADME, organism-based; parameters: dose 2 mg/kg, route intravenous; conditions: in vivo
[2] = Volume of distribution at steady state in C57BL/6 mouse at 2 mg/kg, iv; format: ADME, organism-based; parameters: dose 2 mg/kg, route intravenous; conditions: in vivo, read-out: Vdss
[3] = Oral bioavailability in C57BL/6 mouse at 30 mg/kg; format: ADME, organism-based; conditions: in vivo
[4] = molecular target: Matrix metalloproteinase-14 (Homo sapiens, UniProt P50281); test: Inhibition of human MMP14
[5] = Metabolic stability in dog liver microsomes; format: ADME, Canis lupus familiaris, Microsome
Stromelysin-1 = Stromelysin-1 (Homo sapiens, UniProt P08254); test: Inhibition of human MMP3
[6] = molecular target: Matrix metalloproteinase-9 (Homo sapiens, UniProt P14780); test: Inhibition of human MMP9
[7] = molecular target: T1, A disintegrin and metalloproteinase with thrombospondin motifs 4 (Homo sapiens, UniProt O75173); test: Inhibition of human Aggrecanase-1
T1 sequence (O75173 whole entry): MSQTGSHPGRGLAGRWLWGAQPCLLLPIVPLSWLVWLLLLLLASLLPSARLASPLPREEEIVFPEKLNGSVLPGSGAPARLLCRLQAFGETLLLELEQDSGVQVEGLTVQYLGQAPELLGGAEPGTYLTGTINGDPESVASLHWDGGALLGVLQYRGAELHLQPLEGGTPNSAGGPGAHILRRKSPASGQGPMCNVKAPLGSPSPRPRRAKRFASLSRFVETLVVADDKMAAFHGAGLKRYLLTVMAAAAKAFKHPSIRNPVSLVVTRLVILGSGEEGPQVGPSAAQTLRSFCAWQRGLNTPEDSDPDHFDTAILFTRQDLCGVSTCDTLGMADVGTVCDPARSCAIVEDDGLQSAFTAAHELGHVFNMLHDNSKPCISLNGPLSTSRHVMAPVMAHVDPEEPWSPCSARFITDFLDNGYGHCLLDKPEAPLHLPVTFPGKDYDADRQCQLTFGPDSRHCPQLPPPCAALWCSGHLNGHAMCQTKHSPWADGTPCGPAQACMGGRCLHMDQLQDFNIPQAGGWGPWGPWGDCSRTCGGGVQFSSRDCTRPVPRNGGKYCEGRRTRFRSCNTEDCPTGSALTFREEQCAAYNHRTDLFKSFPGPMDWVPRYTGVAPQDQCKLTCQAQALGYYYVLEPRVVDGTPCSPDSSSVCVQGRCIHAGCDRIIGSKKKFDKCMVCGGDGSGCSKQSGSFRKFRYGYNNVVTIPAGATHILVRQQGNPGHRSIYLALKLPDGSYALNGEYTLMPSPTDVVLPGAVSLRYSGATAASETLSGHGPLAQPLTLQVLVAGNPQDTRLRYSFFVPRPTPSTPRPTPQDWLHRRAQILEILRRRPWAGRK

[8] = Inhibition of sheep MMP12; parameters: species or system Ovis aries
[9] = Metabolic stability in monkey liver microsomes; format: ADME, Macaca mulatta, Microsome; conditions: rhesus monkey
Interstitial collagenase = molecular target: T2, Interstitial collagenase (Homo sapiens, UniProt P03956); test: Inhibition of human MMP1
T2 sequence (P03956 whole entry): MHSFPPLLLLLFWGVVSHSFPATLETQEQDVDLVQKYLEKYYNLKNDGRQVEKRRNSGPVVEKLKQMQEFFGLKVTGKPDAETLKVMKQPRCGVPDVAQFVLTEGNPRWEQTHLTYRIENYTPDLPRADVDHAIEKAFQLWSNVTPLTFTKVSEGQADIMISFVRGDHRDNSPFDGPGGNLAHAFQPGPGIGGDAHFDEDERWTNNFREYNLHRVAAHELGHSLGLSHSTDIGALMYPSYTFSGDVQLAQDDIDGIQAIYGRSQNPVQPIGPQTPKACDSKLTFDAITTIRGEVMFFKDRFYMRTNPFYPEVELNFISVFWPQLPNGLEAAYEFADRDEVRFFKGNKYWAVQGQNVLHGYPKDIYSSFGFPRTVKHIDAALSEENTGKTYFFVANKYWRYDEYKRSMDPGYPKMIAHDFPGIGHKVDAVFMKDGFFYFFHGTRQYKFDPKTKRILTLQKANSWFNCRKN

Matrilysin = molecular target: T3, Matrilysin (Homo sapiens, UniProt P09237); test: Inhibition of human MMP7
T3 sequence (P09237 whole entry): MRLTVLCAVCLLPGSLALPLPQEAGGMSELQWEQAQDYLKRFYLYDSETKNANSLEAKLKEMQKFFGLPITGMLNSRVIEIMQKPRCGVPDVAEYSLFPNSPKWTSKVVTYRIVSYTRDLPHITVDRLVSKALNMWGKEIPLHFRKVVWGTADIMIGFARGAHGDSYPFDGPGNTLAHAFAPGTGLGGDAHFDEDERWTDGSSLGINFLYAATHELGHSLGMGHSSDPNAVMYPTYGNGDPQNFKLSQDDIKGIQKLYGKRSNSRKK

[10] = Metabolic stability in human liver microsomes; format: ADME, Microsome
Mus musculus [11] = test: Inhibition of human recombinant MMP-12-induced lung inflammation in po dosed C57BL/6 mouse chronic obstructive pulmonary disease model assessed as inhibition of lung inflammation dosed twice daily; format: functional; conditions: C57BL/6, po, read-out: MED
[12] = AUC in C57BL/6 mouse at 30 mg/kg, po; format: ADME, organism-based; parameters: dose 30 mg/kg, route oral; conditions: plasma
Mus musculus [13] = test: Inhibition of human recombinant MMP-12-induced lung inflammation in C57BL/6 mouse chronic obstructive pulmonary disease model assessed as inhibition of bronchoalveolar lavage fluid inflammation at 30 mg/kg, po qd; format: functional; conditions: C57BL/6, Lung
[14] = Cmax in C57BL/6 mouse at 30 mg/kg, po; format: ADME, organism-based; parameters: dose 30 mg/kg, route oral; conditions: in vivo
[15] = molecular target: Macrophage metalloelastase (Rattus norvegicus, UniProt Q63341)
[16] = molecular target: T4, A disintegrin and metalloproteinase with thrombospondin motifs 5 (Homo sapiens, UniProt Q9UNA0); test: Inhibition of human Aggrecanase-2
T4 sequence (Q9UNA0 whole entry): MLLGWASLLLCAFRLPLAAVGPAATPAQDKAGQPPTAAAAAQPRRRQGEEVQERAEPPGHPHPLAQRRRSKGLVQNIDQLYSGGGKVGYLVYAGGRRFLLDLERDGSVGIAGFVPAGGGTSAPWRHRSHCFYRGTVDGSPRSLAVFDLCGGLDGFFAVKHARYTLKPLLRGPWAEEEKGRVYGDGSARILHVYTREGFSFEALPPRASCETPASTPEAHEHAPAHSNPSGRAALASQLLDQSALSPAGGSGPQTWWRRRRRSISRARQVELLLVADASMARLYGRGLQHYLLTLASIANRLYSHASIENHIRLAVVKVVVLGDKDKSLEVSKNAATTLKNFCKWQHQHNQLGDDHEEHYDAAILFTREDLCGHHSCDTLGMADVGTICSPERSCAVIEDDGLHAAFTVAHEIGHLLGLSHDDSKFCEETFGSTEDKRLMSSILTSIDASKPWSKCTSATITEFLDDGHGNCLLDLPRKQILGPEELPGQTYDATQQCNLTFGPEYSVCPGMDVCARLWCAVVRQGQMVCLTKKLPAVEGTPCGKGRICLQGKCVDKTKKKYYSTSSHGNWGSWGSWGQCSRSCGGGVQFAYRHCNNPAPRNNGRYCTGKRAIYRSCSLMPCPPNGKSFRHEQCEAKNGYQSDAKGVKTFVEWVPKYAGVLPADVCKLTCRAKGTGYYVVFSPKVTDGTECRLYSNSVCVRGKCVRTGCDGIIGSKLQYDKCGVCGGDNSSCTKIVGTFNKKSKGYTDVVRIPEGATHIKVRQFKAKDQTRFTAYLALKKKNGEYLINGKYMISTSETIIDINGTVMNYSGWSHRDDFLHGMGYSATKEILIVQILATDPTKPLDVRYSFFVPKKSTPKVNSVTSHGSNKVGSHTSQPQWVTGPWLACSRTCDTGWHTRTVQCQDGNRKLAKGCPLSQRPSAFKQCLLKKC

[17] = molecular target: Voltage-gated inwardly rectifying potassium channel KCNH2 (Homo sapiens, UniProt Q12809); test: Inhibition of human ERG channel
[18] = Half life in C57BL/6 mouse at 30 mg/kg, po; format: ADME, organism-based; parameters: dose 30 mg/kg, route oral; conditions: in vivo
[19] = molecular target: Macrophage metalloelastase (Mus musculus, UniProt P34960); test: Inhibition of mouse recombinant MMP12
[20] = Metabolic stability in mouse liver microsomes; format: ADME, Microsome
Mus musculus [21] = test: Inhibition of human recombinant MMP-12-induced lung inflammation in C57BL/6 mouse chronic obstructive pulmonary disease model assessed as inhibition of bronchoalveolar lavage fluid macrophage level at 30 mg/kg, po qd; format: functional; conditions: C57BL/6, Lung
[22] = Metabolic stability in rat liver microsomes; format: ADME, Microsome

Macrophage metalloelastase (Rattus norvegicus, UniProt Q63341), sequence (Q63341 whole entry): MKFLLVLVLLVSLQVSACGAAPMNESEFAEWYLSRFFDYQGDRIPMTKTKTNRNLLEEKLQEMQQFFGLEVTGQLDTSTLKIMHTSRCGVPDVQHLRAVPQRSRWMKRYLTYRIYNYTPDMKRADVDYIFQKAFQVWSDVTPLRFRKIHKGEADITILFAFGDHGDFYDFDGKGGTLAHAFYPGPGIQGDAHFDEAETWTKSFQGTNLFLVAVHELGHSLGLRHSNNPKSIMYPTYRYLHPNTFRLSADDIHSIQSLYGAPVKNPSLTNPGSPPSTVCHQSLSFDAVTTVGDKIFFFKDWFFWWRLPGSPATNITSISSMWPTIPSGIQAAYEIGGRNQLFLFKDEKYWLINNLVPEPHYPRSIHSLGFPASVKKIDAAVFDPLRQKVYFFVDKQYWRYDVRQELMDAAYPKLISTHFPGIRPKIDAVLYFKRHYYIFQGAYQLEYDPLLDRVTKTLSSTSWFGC
Voltage-gated inwardly rectifying potassium channel KCNH2, sequence (Q12809 whole entry): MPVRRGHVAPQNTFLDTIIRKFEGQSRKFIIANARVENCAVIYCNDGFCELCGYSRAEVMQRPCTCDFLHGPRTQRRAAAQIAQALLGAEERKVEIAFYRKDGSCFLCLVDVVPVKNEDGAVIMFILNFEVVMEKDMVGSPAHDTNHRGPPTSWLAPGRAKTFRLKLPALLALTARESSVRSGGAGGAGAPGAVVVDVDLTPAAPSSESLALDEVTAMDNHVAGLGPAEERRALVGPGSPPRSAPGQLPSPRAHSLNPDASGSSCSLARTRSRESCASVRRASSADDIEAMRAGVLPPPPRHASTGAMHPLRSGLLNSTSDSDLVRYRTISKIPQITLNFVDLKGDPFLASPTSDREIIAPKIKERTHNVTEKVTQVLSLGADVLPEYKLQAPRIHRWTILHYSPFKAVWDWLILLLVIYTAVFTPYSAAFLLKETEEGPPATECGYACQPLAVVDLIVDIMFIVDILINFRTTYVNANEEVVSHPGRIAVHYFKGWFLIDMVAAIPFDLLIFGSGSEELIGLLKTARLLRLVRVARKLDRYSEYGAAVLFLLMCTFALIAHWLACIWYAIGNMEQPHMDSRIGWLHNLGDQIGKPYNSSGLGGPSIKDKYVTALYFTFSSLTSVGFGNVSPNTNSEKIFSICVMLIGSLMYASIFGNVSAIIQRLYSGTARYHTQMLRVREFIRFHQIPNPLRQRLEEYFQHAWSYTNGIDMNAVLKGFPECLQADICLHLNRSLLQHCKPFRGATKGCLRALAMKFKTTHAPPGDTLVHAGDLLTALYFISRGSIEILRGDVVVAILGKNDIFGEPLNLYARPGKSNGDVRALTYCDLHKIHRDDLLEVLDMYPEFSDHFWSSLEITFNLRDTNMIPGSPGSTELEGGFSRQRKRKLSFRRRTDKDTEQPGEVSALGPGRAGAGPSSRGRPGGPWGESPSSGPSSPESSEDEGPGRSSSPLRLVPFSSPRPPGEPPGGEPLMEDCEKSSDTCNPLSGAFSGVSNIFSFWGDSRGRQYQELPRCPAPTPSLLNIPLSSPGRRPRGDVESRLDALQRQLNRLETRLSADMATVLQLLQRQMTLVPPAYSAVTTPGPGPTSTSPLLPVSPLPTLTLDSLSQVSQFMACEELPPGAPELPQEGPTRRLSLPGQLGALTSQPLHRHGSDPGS
Stromelysin-1, sequence (P08254 whole entry): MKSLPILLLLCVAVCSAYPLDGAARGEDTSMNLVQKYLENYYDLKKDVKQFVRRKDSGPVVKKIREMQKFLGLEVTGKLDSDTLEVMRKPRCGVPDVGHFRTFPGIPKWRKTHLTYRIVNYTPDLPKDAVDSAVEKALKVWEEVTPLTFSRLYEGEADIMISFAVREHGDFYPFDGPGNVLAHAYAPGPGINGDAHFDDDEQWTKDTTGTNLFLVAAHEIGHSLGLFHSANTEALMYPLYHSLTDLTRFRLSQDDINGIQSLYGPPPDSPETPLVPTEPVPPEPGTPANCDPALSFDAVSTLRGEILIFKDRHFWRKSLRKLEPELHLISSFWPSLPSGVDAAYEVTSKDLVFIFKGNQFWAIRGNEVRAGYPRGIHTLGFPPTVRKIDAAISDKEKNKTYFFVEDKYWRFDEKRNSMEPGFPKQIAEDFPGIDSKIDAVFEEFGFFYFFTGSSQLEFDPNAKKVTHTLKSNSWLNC
Matrix metalloproteinase-9, sequence (P14780 whole entry): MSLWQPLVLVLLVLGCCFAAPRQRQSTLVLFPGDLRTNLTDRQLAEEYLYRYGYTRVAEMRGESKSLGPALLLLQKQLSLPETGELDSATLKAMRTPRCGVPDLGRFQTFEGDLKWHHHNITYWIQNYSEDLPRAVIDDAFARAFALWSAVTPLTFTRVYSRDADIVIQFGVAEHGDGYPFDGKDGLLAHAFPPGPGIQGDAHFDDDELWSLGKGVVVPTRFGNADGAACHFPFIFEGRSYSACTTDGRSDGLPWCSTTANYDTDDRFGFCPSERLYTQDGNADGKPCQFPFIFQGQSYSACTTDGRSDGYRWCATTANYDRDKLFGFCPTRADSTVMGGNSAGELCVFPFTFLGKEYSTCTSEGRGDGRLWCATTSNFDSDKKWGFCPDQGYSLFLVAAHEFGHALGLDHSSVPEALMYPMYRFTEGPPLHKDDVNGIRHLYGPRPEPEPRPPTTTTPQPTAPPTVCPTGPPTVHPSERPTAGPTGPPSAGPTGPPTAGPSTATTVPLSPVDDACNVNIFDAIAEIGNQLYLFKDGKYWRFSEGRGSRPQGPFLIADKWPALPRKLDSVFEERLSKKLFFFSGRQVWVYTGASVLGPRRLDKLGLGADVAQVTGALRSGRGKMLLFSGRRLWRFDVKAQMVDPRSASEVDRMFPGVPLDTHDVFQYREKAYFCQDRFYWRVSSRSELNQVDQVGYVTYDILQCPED
Macrophage metalloelastase (Mus musculus, UniProt P34960), sequence (P34960 whole entry): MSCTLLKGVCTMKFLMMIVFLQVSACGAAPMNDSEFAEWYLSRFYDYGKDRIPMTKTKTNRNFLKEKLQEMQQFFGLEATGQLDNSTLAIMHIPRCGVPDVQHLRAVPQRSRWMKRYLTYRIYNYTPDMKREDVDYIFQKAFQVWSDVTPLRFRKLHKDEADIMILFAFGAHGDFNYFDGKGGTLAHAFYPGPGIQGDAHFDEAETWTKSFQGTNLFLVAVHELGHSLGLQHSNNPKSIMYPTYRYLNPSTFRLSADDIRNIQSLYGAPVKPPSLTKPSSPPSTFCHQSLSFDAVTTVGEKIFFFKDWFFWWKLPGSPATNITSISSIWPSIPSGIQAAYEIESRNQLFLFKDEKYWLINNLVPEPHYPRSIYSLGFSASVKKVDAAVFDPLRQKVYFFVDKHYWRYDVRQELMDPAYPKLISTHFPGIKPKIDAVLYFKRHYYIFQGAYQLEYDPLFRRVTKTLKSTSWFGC

Compound: CC(C)[C@H](NS(=O)(=O)c1ccc2c(c1)oc1cc(NC(=O)Oc3ccc(F)cc3)ccc12)C(=O)O
- IC50 (Collagenase 3): 361 nM

Compound: CC(C)[C@H](NS(=O)(=O)c1ccc2c(c1)oc1ccc(NC(=O)NC3CCCC3)cc12)C(=O)O
- IC50 (Collagenase 3): 2.1 nM

Compound: CC(C)[C@H](NS(=O)(=O)c1ccc2c(c1)oc1ccc(NC(=O)NCCc3cccs3)cc12)C(=O)O
- clearance [1]: 211 mL/min/kg
- Vd [2]: 15.6 L/kg
- IC50 (Collagenase 3): 1.1 nM

Compound: CC(C)[C@H](NS(=O)(=O)c1ccc2c(c1)oc1ccc(NC(=O)Oc3ccccc3Cl)cc12)C(=O)O
- IC50 (Collagenase 3): 180 nM

Compound: COC(=O)Nc1ccc2c(c1)oc1cc(S(=O)(=O)N[C@H](C(=O)O)C(C)C)ccc12
- IC50 (Collagenase 3): > 1000 nM

Compound: CCCOC(=O)Nc1ccc2oc3cc(S(=O)(=O)N[C@H](C(=O)O)C(C)C)ccc3c2c1
- IC50 (Collagenase 3): 10 nM

Compound: CC(C)COC(=O)Nc1ccc2oc3cc(S(=O)(=O)N[C@H](C(=O)O)C(C)C)ccc3c2c1
- IC50 (Collagenase 3): 10 nM

Compound: CC(C)[C@H](NS(=O)(=O)c1ccc2oc3ccccc3c2c1)C(=O)O
- IC50 (Collagenase 3): 25000 nM

Compound: CC(C)[C@H](NS(=O)(=O)c1ccc2c(c1)oc1ccc(NC(N)=O)cc12)C(=O)O
- IC50 (Collagenase 3): 59 nM

Compound: COC(=O)Nc1ccc2oc3cc(S(=O)(=O)N[C@H](C(=O)O)C(C)C)ccc3c2c1
- bioavailability [3]: 27%
- IC50 [4]: 1100 nM
- half-life [5]: > 1 h
- IC50 (Stromelysin-1): 351 nM
- IC50 [6]: 1300 nM
- IC50 [7]: > 5000 nM
- IC50 [8]: 22.3 nM
- half-life [9]: > 1 h
- IC50 (Interstitial collagenase): > 6000 nM
- IC50 (Matrilysin): > 22000 nM
- half-life [10]: > 1 h
- minimal effective dose (Mus musculus [11]): 5 mg/kg
- AUC [12]: 7480 ng·h/mL
- inhibition in vivo at 30 mg/kg (Mus musculus [13]): > 50%
- Cmax [14]: 3080 ng/mL
- IC50 [15]: 320 nM
- IC50 [16]: > 10000 nM
- clearance [1]: 17.2 mL/min/kg
- Activity [17]: Not Active
- half-life [18]: 3 h
- IC50 [19]: 160 nM
- half-life [20]: > 1 h
- Vd [2]: 1.9 L/kg
- IC50 (Collagenase 3): 120 nM
- inhibition in vivo at 30 mg/kg (Mus musculus [21]): > 70%
- half-life [22]: > 1 h

Compound: CCOC(=O)Nc1ccc2oc3cc(S(=O)(=O)N[C@H](C(=O)O)C(C)C)ccc3c2c1
- bioavailability [3]: 42%
- AUC [12]: 10800 ng·h/mL
- Cmax [14]: 7790 ng/mL
- clearance [1]: 19 mL/min/kg
- half-life [18]: 3.4 h
- Vd [2]: 1.6 L/kg
- IC50 (Collagenase 3): 100 nM

Compound: CC(C)[C@H](NS(=O)(=O)c1ccc2c(c1)oc1ccc(NC(=O)OCCF)cc12)C(=O)O
- IC50 (Collagenase 3): 10 nM

Compound: CC(C)[C@H](NS(=O)(=O)c1ccc2c(c1)oc1ccc(NC(=O)Oc3ccccc3)cc12)C(=O)O
- IC50 (Collagenase 3): 220 nM

Compound: Cc1ccc(OC(=O)Nc2ccc3oc4cc(S(=O)(=O)N[C@H](C(=O)O)C(C)C)ccc4c3c2)cc1
- IC50 (Collagenase 3): 100 nM

Compound: CC(C)[C@H](NS(=O)(=O)c1ccc2c(c1)oc1ccc(NC(=O)Nc3ccsc3)cc12)C(=O)O
- IC50 (Collagenase 3): 3.3 nM
